According to ChEMBL document CHEMBL1201862, “PubChem BioAssay data set” (2004):
Activity calls are given as the source filed them.

Key:
[1] = biological target: Polyadenylate-binding protein 1 (Homo sapiens, UniProt P11940); assay: blockers of PABP interaction with poly(A) – biochemical, fluorescence polarization, […] (AID 2014)
[2] = biological target: Eukaryotic translation initiation factor 4H (Homo sapiens, UniProt Q15056); assay: eIF4H binding inhibition – biochemical, uHTS, fluorescence polarization, translation initiation inhibitor project, primary screen (AID 2012)
[3] = biological target: Induced myeloid leukemia cell differentiation protein Mcl-1 (Homo sapiens, UniProt Q07820); format: functional
Induced myeloid leukemia cell differentiation protein Mcl-1, sequence (Q07820 whole entry): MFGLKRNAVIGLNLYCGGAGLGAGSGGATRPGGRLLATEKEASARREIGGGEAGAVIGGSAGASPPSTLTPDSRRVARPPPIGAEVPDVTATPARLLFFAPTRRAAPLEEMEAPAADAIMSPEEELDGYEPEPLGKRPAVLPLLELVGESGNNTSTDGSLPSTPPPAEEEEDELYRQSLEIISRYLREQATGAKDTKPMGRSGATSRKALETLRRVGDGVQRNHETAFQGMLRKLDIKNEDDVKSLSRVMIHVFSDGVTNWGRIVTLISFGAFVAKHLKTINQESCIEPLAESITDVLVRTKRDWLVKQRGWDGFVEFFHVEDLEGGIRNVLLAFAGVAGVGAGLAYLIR

[4] = biological target: Luciferin 4-monooxygenase (Photinus pyralis, UniProt P08659); assay: Counter Screen for Luciferase-based Assay Positives. [Related pubchem assays: 620, 618, 411 ]
Luciferin 4-monooxygenase, sequence (P08659 whole entry): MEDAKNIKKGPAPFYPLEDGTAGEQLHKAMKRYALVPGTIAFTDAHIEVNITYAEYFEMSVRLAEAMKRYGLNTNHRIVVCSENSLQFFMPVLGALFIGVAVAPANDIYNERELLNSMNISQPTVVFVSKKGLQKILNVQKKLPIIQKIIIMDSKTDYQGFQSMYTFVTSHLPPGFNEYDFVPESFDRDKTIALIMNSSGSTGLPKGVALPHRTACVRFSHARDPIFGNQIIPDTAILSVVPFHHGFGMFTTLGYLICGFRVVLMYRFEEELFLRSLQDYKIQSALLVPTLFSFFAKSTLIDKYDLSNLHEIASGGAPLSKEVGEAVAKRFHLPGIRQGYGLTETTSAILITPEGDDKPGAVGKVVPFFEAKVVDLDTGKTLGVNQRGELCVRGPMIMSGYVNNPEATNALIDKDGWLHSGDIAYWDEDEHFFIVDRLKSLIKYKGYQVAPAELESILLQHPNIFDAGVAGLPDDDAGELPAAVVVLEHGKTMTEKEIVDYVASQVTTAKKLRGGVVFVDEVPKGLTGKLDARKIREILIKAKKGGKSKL

[5] = test system: HT-1080; assay: HT1080 cell viability loss – fluorescence readout (AID 620); format: functional, cell-based; conditions: Homo sapiens
[6] = test system: HEK293; assay: EBV LMP1 TES2 canonical NF-kB signalling blockers – cell-based, HEK293, luciferase, cherry-pick, dose response (AID 588343); format: functional; conditions: Homo sapiens
[7] = Counterscreen for IDE inhibitors: Luminescence-based cell-based high throughput dose response assay to identify compounds that are cytotoxic to HEK cells. [Related pubchem assays: 434962 (Primary screen (IDE inhibitors in singlicate)), 449730 (Counterscreen (Cytotoxicity in triplicate)), 435028 (Confirmation (IDE inhibitors in triplicate)) …; format: functional; conditions: HEK293
[8] = biological target: Insulin-degrading enzyme (Homo sapiens, UniProt P14735); assay: Dose Response: Fluorescence polarization-based cell-based high throughput dose response assay for inhibitors of insulin-degrading enzyme (IDE). [Related pubchem assays: 434962 (Primary screen (IDE inhibitors in singlicate)), 449730 (Counterscreen (Cytotoxicity in triplicate)), 435028 (Confirmation (IDE inhibitors in triplicate)), 434984 (Summary …; format: functional
Insulin-degrading enzyme, sequence (P14735 whole entry): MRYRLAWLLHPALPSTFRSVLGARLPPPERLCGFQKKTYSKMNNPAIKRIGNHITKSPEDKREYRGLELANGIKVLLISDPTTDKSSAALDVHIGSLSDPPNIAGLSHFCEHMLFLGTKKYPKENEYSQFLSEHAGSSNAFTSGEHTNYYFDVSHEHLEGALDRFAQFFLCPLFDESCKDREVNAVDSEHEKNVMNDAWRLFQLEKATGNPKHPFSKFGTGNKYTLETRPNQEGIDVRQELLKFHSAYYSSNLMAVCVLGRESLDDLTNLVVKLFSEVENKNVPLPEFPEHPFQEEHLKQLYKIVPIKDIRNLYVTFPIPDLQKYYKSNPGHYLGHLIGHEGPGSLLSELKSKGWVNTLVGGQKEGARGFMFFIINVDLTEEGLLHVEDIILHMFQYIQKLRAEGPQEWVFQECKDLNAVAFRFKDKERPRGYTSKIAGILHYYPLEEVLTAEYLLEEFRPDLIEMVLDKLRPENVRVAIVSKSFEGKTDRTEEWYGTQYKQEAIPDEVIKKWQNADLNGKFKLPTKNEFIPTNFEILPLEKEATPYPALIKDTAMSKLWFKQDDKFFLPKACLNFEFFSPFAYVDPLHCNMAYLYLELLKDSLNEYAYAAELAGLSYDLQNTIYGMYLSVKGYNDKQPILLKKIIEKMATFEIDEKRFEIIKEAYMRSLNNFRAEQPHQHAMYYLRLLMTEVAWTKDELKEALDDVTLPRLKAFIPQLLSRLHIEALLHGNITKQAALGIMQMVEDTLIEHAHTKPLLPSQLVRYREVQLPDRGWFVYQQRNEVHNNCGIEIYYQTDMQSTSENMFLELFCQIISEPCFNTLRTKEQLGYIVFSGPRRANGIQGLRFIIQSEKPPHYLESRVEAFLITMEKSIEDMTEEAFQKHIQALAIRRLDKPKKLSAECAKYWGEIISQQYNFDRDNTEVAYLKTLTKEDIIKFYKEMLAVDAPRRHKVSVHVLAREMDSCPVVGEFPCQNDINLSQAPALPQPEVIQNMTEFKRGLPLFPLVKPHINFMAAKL

[9] = test system: HeLa; assay: viability loss in HeLa cells – cell-based, 24 h, cherry-picked samples, cytotoxicity control, dose response (AID 504726); format: functional; conditions: Homo sapiens;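 further: potency for cytotoxicity as loss of luminescence signal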
[10] = test system: BJ; assay: BJ-TERT fibroblast viability loss – cell-based, RAS-independent, luminescence, dose response (AID 1933); format: functional; conditions: Homo sapiens
[11] = alpha-synuclein stem-loop luciferase translation blockers – H4 neuroglioma cells, luminescence, confirmation (AID 1988); format: functional, cell-based
[12] = Luminescence Cell-Based Dose Response HTS to Identify Inhibitors of 5'UTR Stem-Loop Driven Prion Protein mRNA Translation in H4 Neuroglioblastoma Cells. [Related pubchem assays: 1827 (Project Summary), 1813 (Primary HTS)]; format: functional
[13] = test system: BJ; assay: BJ-TERT-LT-ST fibroblast viability loss – cell-based, RAS-independent, luminescence, dose response (AID 1935); format: functional; conditions: Homo sapiens;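 further: BJ fibroblasts immortalized with TERT plus LT and ST oncogenes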
[14] = luciferase reporter signal suppression in cells – H4 neuroglioma cells, luminescence, dose response (AID 1990); format: functional, cell-based
[15] = test system: HeLa; assay: Cytotoxicity counterscreen assay for transcriptional activators of heat shock protein 70 (Hsp70). [Related pubchem assays: 1203, 1252 ]; format: functional; conditions: Homo sapiens
[16] = A Cell Based Secondary Assay To Explore Cytotoxicity of Compounds that Sensitize Mycobacterium Tuberculosis to Beta-Lactam Antibiotics.; format: functional
[17] = test system: BJ; assay: cells; format: functional, cell-based; conditions: Homo sapiens
[18] = DRD fibroblast viability loss – cell-based, non-viral oncogenic, luminescence, dose response (AID 1934); format: functional; conditions: Homo sapiens
[19] = test system: INS1; assay: INS-1E survival protection against cytokine death – cell-based, luminescence, retest, dose response (AID 449756); format: functional; conditions: Rattus norvegicus;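 further: cell death triggered by IL-1 beta plus TNF-alpha plus IFN-gamma mixture; protective hits raise ATP signal compared with cytokine alone wells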
[20] = alpha-synuclein stem-loop translation blockers – luminescence, H4 neuroglioblastoma cells, dose confirmation, confirmation (AID 2454); format: functional, cell-based;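 further: H4 neuroglioblastoma cells carrying an alpha-synuclein 5'UTR luciferase reporter; potency for inhibition of the luciferase signal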
[21] = luciferase reporter signal reduction – luminescence, H4-C neuroglioblastoma cells, dose response (AID 2458); format: functional, cell-based;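 further: H4 neuroglioblastoma cells stably carrying a luciferase reporter gene fusion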
[22] = biological target: Albumin (Bos taurus, UniProt P02769); assay: Counterscreen for inhibitors of T-cell receptor (TCR)-CD3 interaction: Fluorescence-based biochemical high throughput dose response assay to identify inhibitors of T-cell receptor (TCR)-CD3 interaction using a TAMRA-labeled BSA probe.; format: functional
Albumin, sequence (P02769 whole entry): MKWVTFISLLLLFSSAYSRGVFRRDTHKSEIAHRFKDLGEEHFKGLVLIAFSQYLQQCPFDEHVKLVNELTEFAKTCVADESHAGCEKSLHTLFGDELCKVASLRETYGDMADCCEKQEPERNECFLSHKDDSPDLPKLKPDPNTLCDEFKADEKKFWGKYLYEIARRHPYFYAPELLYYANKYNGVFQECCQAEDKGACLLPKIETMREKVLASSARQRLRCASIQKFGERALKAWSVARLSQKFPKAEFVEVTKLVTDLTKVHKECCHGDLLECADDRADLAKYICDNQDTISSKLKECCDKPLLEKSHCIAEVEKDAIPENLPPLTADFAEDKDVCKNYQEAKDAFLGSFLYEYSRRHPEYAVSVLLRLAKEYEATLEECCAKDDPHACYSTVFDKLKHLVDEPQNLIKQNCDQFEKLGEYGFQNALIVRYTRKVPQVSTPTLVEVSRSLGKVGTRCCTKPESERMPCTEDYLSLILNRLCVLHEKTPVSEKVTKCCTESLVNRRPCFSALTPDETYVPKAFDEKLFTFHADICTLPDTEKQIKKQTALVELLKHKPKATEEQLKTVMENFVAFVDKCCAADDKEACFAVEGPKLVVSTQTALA

[23] = cells; format: functional, cell-based
[24] = viability of uninfected HEp-2 cells – cell-based, HTS, cytotoxicity control for RSV inhibitor project, dose response (AID 2410); format: functional; conditions: human respiratory syncytial virus
[25] = cells

Polyadenylate-binding protein 1, sequence (P11940 whole entry): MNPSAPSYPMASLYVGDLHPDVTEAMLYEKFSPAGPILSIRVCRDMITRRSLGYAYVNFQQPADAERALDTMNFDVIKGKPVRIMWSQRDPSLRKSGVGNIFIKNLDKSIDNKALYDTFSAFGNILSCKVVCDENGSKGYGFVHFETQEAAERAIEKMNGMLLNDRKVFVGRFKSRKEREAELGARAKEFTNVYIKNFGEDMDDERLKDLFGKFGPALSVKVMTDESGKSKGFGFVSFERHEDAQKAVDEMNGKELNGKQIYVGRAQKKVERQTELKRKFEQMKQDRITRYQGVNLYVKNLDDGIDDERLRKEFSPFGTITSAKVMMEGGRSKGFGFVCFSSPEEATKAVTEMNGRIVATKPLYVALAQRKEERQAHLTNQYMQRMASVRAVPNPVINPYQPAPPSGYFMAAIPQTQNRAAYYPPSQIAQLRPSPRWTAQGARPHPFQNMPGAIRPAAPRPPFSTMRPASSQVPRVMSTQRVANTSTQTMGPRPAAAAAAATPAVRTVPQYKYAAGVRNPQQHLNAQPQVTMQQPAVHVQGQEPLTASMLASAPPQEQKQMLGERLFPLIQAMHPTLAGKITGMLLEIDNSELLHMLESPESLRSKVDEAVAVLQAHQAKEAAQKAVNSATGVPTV

CC1=C(C(=O)OC(C)C)C(c2ccco2)NC(=O)N1 (stereo not given)
IC50 [1]: 42.8 µM (active)
IC50 [2]: 34.7 µM (active)

CC(OC(=O)c1cccc(N2C(=O)c3ccccc3C2=O)c1)C(=O)Nc1ccc(N(C)C)cc1 (stereo not given)
IC50 [3]: 6.19 µM (not active)

CCO/C(O)=C1\C(C)=NC2=C(C(=O)CC(C)(C)C2)C1c1ccc2c(c1)CCCN2C (stereo not given)
IC50 [3]: 1.65 µM (not active)

C/C(=N/NC(=O)c1cc(C2CC2)[nH]n1)c1cccs1
EC50 [4]: > 100 µM (not active)
EC50 [5]: > 50 µM (not active)
AC50 [6]: 1.63 µM (active)

Cc1cccc(Nc2nc(N)c(C#N)c(CC#N)c2C#N)c1
IC50 [7]: 29.6 µM (not active)
IC50 [8]: > 56 µM (not active)

Oc1nc(S)nc2c1C(c1ccc(Br)cc1)c1c(O)nc(S)nc1O2
AC50 [9]: > 350 µM (inactive)

C=CCSc1nccc(-c2nn(-c3ccc(C)cc3)ccc2=O)n1
EC50 [10]: 15.6 µM (active)
EC50 [11]: 7.52 µM (active)
EC50 [12]: > 120 µM (not active)
EC50 [13]: 90.2 µM (active)
EC50 [14]: 9.46 µM (active)
CC50 [15]: > 33 µM (not active)
CC50 [16]: 16.7 µM (active)
EC50 [17]: 111 µM (active)
EC50 [18]: 3.51 µM (inconclusive)

C/C(=N\NC(=O)c1c(C)nc2ccccn12)c1ccc(O)cc1O
EC50 [11]: < 0.1 µM (active)
AC50 [19]: 0.586 µM (active)
EC50 [20]: > 12 µM (inconclusive)
EC50 [12]: < 0.1 µM (active)
EC50 [21]: 0.739 µM (active)
IC50 [22]: > 94.1 µM (inactive)
EC50 [23]: 0.901 µM (active)

COCc1cc(C)nc(SCC(=O)Nc2ccccc2N2CCOCC2)c1C#N
CC50 [24]: > 50 µM (active)
IC50 [25]: 9.24 µM (active)

CC(=O)N(C(C)=O)c1nc(-c2ccccc2)cn1/N=C/c1ccccc1
IC50 [7]: 20 µM (not active)
IC50 [8]: > 55.9 µM (not active)
